For series [1] the following is noted: cynomolgus monkey, in vivo, iv, 2.5 mg/kg.
The nature of series [2]: accelerated in vitro elution from PC1036 coated drug-loaded stents (Example 10). The format is physicochemical. Particulars: stents with 10 μg/mm zotarolimus alone or with paclitaxel.
Series [3] concerns human coronary artery smooth muscle cells (hCaSMC). Nature of the series: 3H-thymidine uptake proliferation assay, hCaSMC. The format is cell-based. As for the experimental part:
Experiments were performed to investigate interactions between zotarolimus (ABT-578) and paclitaxel when administered in combination. The effects of paclitaxel and zotarolimus on the anti-proliferative activity of human coronary artery smooth muscle ([…]) and endothelial […] determined using an in vitro proliferation assay. The proliferation and migration of vascular smooth muscle cells into the vascular neointima is a characteristic pathologic response seen in restenotic lesions (Lafont and Libby, 1998). As a result, in vitro assays which specifically measure the anti-proliferative activity of candidate anti-restenotic compounds on human coronary artery smooth muscle and endothelial cells predict potential anti-restenotic activity in vivo. Compounds or combinations of compounds which attenuate growth factor-mediated human coronary artery smooth muscle cell ([…]) proliferation, as measured by the tritium incorporation assay in vitro, are candidate anti-restenotic agents. The tritium incorporation assay is an accurate and sensitive method to determine cell number and proliferation. […] The attenuation of zotarolimus's anti-proliferative activity by tacrolimus is a clear example of this effect (FIG. 10A). To determine the potential anti-restenotic activity of combinations of zotarolimus and paclitaxel, the proliferation of […] was measured in the presence of each compound and in combination. To determine if paclitaxel attenuated or augmented the activity of zotarolimus the effect of paclitaxel and zotarolimus alone and in combination on growth-factor induced proliferation was determined. Data were analyzed for additivity using an isobologram approach and a combination index analysis. An isobologram is a Cartesian plot of pairs of doses that, in combination, yield a specified level of effect. It is a convenient way of graphically displaying results of drug-combination and similar studies, because paired values of experimental points that fall below or above the line connecting the axial points indicate synergistic and non-synergistic interactions, respectively. Cell proliferation was monitored by following incorporation of ^3H-thymidine into newly synthesized DNA of cells stimulated by serum and growth factors. Exponentially growing […] were seeded into 96-well flat bottom tissue culture plates at 5,000 cells/well (10,000 cells/well for […]). The cells were allowed to attach overnight. The growth medium was removed the following day, and cells were washed twice with un-supplemented (basal) medium to remove traces of serum and growth factors. […] PerkinElmer; Wellesley; MA) was added to each filter well and the plates were counted using a TopCount microplate scintillation counter (PerkinElmer). […]

Series [4] deals with human coronary artery endothelial cells (hCaEC). Nature of the series: 3H-thymidine uptake proliferation assay, hCaEC. Type of series: cell-based. As for the experimental part:
Experiments were performed to investigate interactions between zotarolimus (ABT-578) and paclitaxel when administered in combination. The effects of paclitaxel and zotarolimus on the anti-proliferative activity of human coronary artery smooth muscle ([…]) and endothelial […] determined using an in vitro proliferation assay. The proliferation and migration of vascular smooth muscle cells into the vascular neointima is a characteristic pathologic response seen in restenotic lesions (Lafont and Libby, 1998). As a result, in vitro assays which specifically measure the anti-proliferative activity of candidate anti-restenotic compounds on human coronary artery smooth muscle and endothelial cells predict potential anti-restenotic activity in vivo. To determine if paclitaxel attenuated or augmented the activity of zotarolimus the effect of paclitaxel and zotarolimus alone and in combination on growth-factor induced proliferation was determined. Data were analyzed for additivity using an isobologram approach and a combination index analysis. An isobologram is a Cartesian plot of pairs of doses that, in combination, yield a specified level of effect. It is a convenient way of graphically displaying results of drug-combination and similar studies, because paired values of experimental points that fall below or above the line connecting the axial points indicate synergistic and non-synergistic interactions, respectively. Cell proliferation was monitored by following incorporation of ^3H-thymidine into newly synthesized DNA of cells stimulated by serum and growth factors. Exponentially growing […] were seeded into 96-well flat bottom tissue culture plates at 5,000 cells/well (10,000 cells/well for […]). The cells were allowed to attach overnight. […] PerkinElmer; Wellesley; MA) was added to each filter well and the plates were counted using a TopCount microplate scintillation counter (PerkinElmer). […] The concentration eliciting a specific anti-proliferative effect was determined using a four-parameter equation (equation 1): […]

A further series deals with Human MLR. Nature of the series: human mixed lymphocyte reaction (MLR) assay. Type of series: cell-based. Particulars: read-out: Human MLR IC50 ± S.E.M.

For orientation: AUC means concentration integrated over time. A word on the IC50: it is the concentration at which inhibition is half-maximal.

Regarding “40-epi-N-[2′-pyridone]-rapamycin [Example 2-pyridone]”, the AUC in series [1] amounted to 2.55 ng·h/mL. In series [1], `COC1CC2CCC(C)C(O)(O2)C(=O)C(=O)N2CCCCC2C(=O)OC(C(C)CC2CCC(n3ccc(=O)cc3)C(OC)C2)CC(=O)C(C)C=C(C)C(O)C(OC)C(=O)C(C)CC(C)C=CC=CC=C1C` (stereo not drawn) [Example 4-pyridone, 40-epi-N-[4′-pyridone]-rapamycin] yielded an AUC of 5.59 ng·h/mL. As to `CC(=O)O[C@H]1C(=O)[C@@]2(C)[C@H]([C@H](OC(=O)c3ccccc3)[C@]3(O)C[C@H](OC(=O)[C@H](O)[C@@H](NC(=O)c4ccccc4)c4ccccc4)C(C)=C1C3(C)C)[C@]1(OC(C)=O)CO[C@@H]1C[C@@H]2O` [PAC, paclitaxel], the “effect on the elution profile of zotarolimus” value in series [2] is listed as “little effect”. In addition, the IC50 in series [3] (Homo sapiens, read-out: hCaSMC IC50 Mean ± SEM) is 3 ± 0.5 nM; in series [4] (Homo sapiens, Endothelial cell, read-out: hCaEC IC50 Mean ± SEM), 4.6 ± 0.3 nM. Besides, the “effect on the inhibition of proliferation by zotarolimus” value is given as “not blocked” in series [3] (hCaSMC, FIG. 10B) and “not blocked” in series [4] (hCaEC, FIG. 10C). Regarding `CO[C@H]1C[C@@H]2CC[C@@H](C)[C@@](O)(O2)C(=O)C(=O)N2CCCC[C@H]2C(=O)O[C@H]([C@H](C)C[C@@H]2CC[C@@H](O)[C@H](OC)C2)CC(=O)[C@H](C)/C=C(\C)[C@@H](O)[C@@H](OC)C(=O)[C@H](C)C[C@H](C)/C=C/C=C/C=C/1C` [Rapamycin], the IC50 in the series with Human MLR is 0.91 ± 0.36 nM. In the case of `C=CC[C@@H]1/C=C(\C)C[C@H](C)C[C@H](OC)[C@H]2O[C@@](O)(C(=O)C(=O)N3CCCC[C@H]3C(=O)O[C@H](/C(C)=C/[C@@H]3CC[C@@H](O)[C@H](OC)C3)[C@H](C)[C@@H](O)CC1=O)[C@H](C)C[C@@H]2OC` [tacrolimus], the “effect on the anti-proliferative activity of zotarolimus” value in series [3] (smooth muscle cells in vitro, FIG. 10A) is reported as “blocks the anti-proliferative activity of zotarolimus”.
